Patent US20260062412A1, “NITROGEN-CONTAINING HETEROCYCLIC COMPOUND HAVING MYT1 INHIBITORY ACTIVITY” (CHUGAI SEIYAKU KABUSHIKI KAISHA, priority 2023, published 2026)

The molecules below were run against MYT1 protein (Homo sapiens (Human), UniProt Q99640) (assay: Test for binding to ATP binding site of MYT1 (Kinase Tracer 178 / Eu-Anti-GST antibody TR-FRET)). Conditions: ATP binding site of MYT1, 30 minutes at room temperature.
MYT1 protein, sequence (Q99640 whole entry): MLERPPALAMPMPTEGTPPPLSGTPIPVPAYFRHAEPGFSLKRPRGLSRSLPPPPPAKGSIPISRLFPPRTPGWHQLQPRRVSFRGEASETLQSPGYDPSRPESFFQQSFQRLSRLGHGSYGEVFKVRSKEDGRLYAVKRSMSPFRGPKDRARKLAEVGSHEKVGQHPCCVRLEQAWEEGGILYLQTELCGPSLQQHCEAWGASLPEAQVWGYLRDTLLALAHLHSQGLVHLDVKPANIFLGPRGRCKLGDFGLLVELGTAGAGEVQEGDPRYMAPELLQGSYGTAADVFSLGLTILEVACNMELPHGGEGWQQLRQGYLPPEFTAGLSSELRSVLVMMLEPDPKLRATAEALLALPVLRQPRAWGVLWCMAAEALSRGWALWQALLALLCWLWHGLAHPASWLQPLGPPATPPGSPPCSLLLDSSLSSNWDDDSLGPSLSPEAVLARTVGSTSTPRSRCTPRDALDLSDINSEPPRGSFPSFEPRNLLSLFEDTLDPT
Molecule `Nc1c(-c2ccc(F)c3[nH]ncc23)c2cc(C3CCC(F)(F)CC3)c3ncccc3c2[nH]c1=O` [Compound C163, 3-Amino-6-(4,4-difluorocyclohexyl)-4-(7-fluoro-1H-indazol-4-yl)-1H-1,7-phenanthrolin-2-one] has an IC50 of 24 nM. Work on `N#C[C@H]1C[C@H](Oc2cc3c(-c4ccc(Cl)c5[nH]ncc45)c(N)c(=O)[nH]c3cc2F)C1` [Compound A5, (1r,3r)-3-[[3-Amino-4-(7-chloro-1H-indazol-4-yl)-7-fluoro-2-oxo-1H-quinolin-6-yl]oxy]cyclobutane-1-carbonitrile] yielded an IC50 of 1.8 nM. For `Nc1c(-c2ccc(F)c3[nH]ncc23)c2cc(C3CCOC3)c3ncccc3c2[nH]c1=O` (stereo not drawn) [Compound C159, 3-Amino-4-(7-fluoro-1H-indazol-4-yl)-6-(oxolan-3-yl)-1H-1,7-phenanthrolin-2-one], the IC50 was 2.3 nM. Work on `Nc1c(-c2ccc(F)c3[nH]ncc23)c2cc(OCC34CC(C3)C4)c3ncccc3c2[nH]c1=O` [Compound C49, 3-Amino-6-(1-bicyclo[1.1.1]pentanylmethoxy)-4-(7-fluoro-1H-indazol-4-yl)-1H-1,7-phenanthrolin-2-one] yielded an IC50 of 1.7 nM. With `N#CC1(COc2cc3c(-c4ccc(F)c5[nH]ncc45)c(N)c(=O)[nH]c3c3cccnc23)CC1` [Compound C54, 1-[[3-Amino-4-(7-fluoro-1H-indazol-4-yl)-2-oxo-1H-1,7-phenanthrolin-6-yl]oxymethyl]cyclopropane-1-carbonitrile] the IC50 was 1.4 nM. With `Cc1cc2c(-c3ccc(F)c4[nH]ncc34)c(N)c(=O)[nH]c2c2ncccc12` [Compound D3, 3-Amino-4-(7-fluoro-1H-indazol-4-yl)-6-methyl-1H-1,10-phenanthrolin-2-one] the IC50 was 4.6 nM. Molecule `CC(C)CCc1cc2c(-c3ccc(F)c4[nH]ncc34)c(N)c(=O)[nH]c2c2cccnc12` [Compound C107, 3-Amino-4-(7-fluoro-1H-indazol-4-yl)-6-(3-methylbutyl)-1H-1,7-phenanthrolin-2-one] has an IC50 of 8.1 nM. For `Nc1c(-c2cc(F)c(F)c3[nH]ncc23)c2cc(-c3cccnc3)c3ncccc3c2[nH]c1=O` [Compound C215, 3-Amino-4-(6,7-difluoro-1H-indazol-4-yl)-6-pyridin-3-yl-1H-1,7-phenanthrolin-2-one], the IC50 was 2.4 nM. In the case of `Cn1c(=O)c(N)c(-c2ccc(F)c3[nH]ncc23)c2cc(Br)c3ccccc3c21` [Compound B33, 3-Amino-6-bromo-4-(7-fluoro-1H-indazol-4-yl)-1-methylbenzo[h]quinolin-2-one], the IC50 is reported as 2600 nM. In the case of `Nc1c(-c2ccc(F)c3[nH]ncc23)c2cc(OC(F)(F)F)c3ncccc3c2[nH]c1=O` [Compound C188, 3-Amino-4-(7-fluoro-1H-indazol-4-yl)-6-(trifluoromethoxy)-1H-1,7-phenanthrolin-2-one], the IC50 is reported as 4.1 nM. Work on `Nc1c(-c2ccc(F)c3[nH]ncc23)c2cc(OC[C@H]3CCCO3)c3ncccc3c2[nH]c1=O` [Compound C35, 3-Amino-4-(7-fluoro-1H-indazol-4-yl)-6-[[(2R)-oxolan-2-yl]methoxy]-1H-1,7-phenanthrolin-2-one] yielded an IC50 of 4.4 nM. In the case of `Cc1cc2c(-c3c(F)cc(F)c4[nH]ncc34)c(N)c(=O)[nH]c2c2cccnc12` [Compound C222, 3-Amino-4-(5,7-difluoro-1H-indazol-4-yl)-6-methyl-1H-1,7-phenanthrolin-2-one], the IC50 is reported as 1.4 nM. `Nc1c(N2CCCC(CO)C2)c2cc(Br)ccc2[nH]c1=O` (stereo not drawn) [Compound A71, 3-Amino-6-bromo-4-[3-(hydroxymethyl)piperidin-1-yl]-1H-quinolin-2-one 2,2,2-trifluoroacetate] was tested, and the IC50 was 1400 nM. `Nc1c(-c2cccc(O)c2)c2cc(C3CC3)ccc2[nH]c1=O` [Compound A65, 3-Amino-6-cyclopropyl-4-(3-hydroxyphenyl)-1H-quinolin-2-one] was tested, and the IC50 was 190 nM. `Nc1c(-c2cc(F)c(F)c3[nH]ncc23)c2cc(Br)c3ncccc3c2[nH]c1=O` [Compound C66, 3-Amino-6-bromo-4-(6,7-difluoro-1H-indazol-4-yl)-1H-1,7-phenanthrolin-2-one] showed an IC50 of 4.9 nM. `Nc1c(-c2ccnc3[nH]ncc23)c2cc(Br)c3ncccc3c2[nH]c1=O` [Compound C81, 3-Amino-6-bromo-4-(1H-pyrazolo[3,4-b]pyridin-4-yl)-1H-1,7-phenanthrolin-2-one] showed an IC50 of 49 nM. For `Cc1cc2c(-c3ccc(Cl)c4[nH]ncc34)c(N)c(=O)[nH]c2c2ccccc12` [Compound B43, 3-Amino-4-(7-chloro-1H-indazol-4-yl)-6-methyl-1H-benzo[h]quinolin-2-one], the IC50 was 15 nM. Molecule `CCc1cc2c(-c3cc(F)c(F)c4[nH]ncc34)c(N)c(=O)[nH]c2c2cccnc12` [Compound C192, 3-Amino-4-(6,7-difluoro-1H-indazol-4-yl)-6-ethyl-1H-1,7-phenanthrolin-2-one] has an IC50 of 3.7 nM. For `Cc1cc(-c2c(N)c(=O)[nH]c3ccc(Cl)cc23)c2cn[nH]c2c1` [Compound A55, 3-Amino-6-chloro-4-(6-methyl-1H-indazol-4-yl)-1H-quinolin-2-one], the IC50 was 480 nM. Molecule `COc1cc2c(-c3cc(F)c(F)c4[nH]ncc34)c(N)c(=O)[nH]c2c2cc(F)cnc12` [Compound F5, 3-Amino-4-(6,7-difluoro-1H-indazol-4-yl)-9-fluoro-6-methoxy-1H-1,7-phenanthrolin-2-one] has an IC50 of 3.3 nM. `CCOc1cc2c(-c3cc(F)c(Cl)c4[nH]ncc34)c(N)c(=O)[nH]c2c2cccnc12` [Compound C193, 3-Amino-4-(7-chloro-6-fluoro-1H-indazol-4-yl)-6-ethoxy-1H-1,7-phenanthrolin-2-one] gave an IC50 of 1.7 nM. `N#Cc1cc2c(-c3ccc(Cl)c4[nH]ncc34)c(N)c(=O)[nH]c2c2ccccc12` [Compound B41, 3-Amino-4-(7-chloro-1H-indazol-4-yl)-2-oxo-1H-benzo[h]quinoline-6-carbonitrile] showed an IC50 of 14 nM. For `Nc1c(-c2ccc(F)c3[nH]ncc23)c2ccc3ccc(Cl)cc3c2[nH]c1=O` [Compound B11, 3-Amino-9-chloro-4-(7-fluoro-1H-indazol-4-yl)-1H-benzo[h]quinolin-2-one], the IC50 was 30 nM. In the case of `Nc1c(-c2ccc(F)c3[nH]ncc23)c2ccc3c(Cl)cccc3c2[nH]c1=O` [Compound B18, 3-Amino-7-chloro-4-(7-fluoro-1H-indazol-4-yl)-1H-benzo[h]quinolin-2-one], the IC50 is reported as 23 nM. With `COC1(COc2cc3c(-c4ccc(F)c5[nH]ncc45)c(N)c(=O)[nH]c3c3cccnc23)CC1` [Compound C53, 3-Amino-4-(7-fluoro-1H-indazol-4-yl)-6-[(1-methoxycyclopropyl)methoxy]-1H-1,7-phenanthrolin-2-one] the IC50 was 4.2 nM. `N#Cc1cc2c(-c3ccc(Cl)c4[nH]ncc34)c(N)c(=O)[nH]c2c2cccnc12` [Compound C148, 3-Amino-4-(7-chloro-1H-indazol-4-yl)-2-oxo-1H-1,7-phenanthroline-6-carbonitrile] gave an IC50 of 4.1 nM. For `CCc1cc2c(-c3ccc(F)c4[nH]ncc34)c(N)c(=O)[nH]c2c2ncccc12` [Compound D5, 3-Amino-6-ethyl-4-(7-fluoro-1H-indazol-4-yl)-1H-1,10-phenanthrolin-2-one], the IC50 was 6.4 nM. In the case of `Nc1c(-c2ccc(F)c3[nH]ncc23)c2cc(C3CCN(C4CCOCC4)CC3)c3cccnc3c2[nH]c1=O` [Compound D25, 3-Amino-4-(7-fluoro-1H-indazol-4-yl)-6-[1-(oxan-4-yl)piperidin-4-yl]-1H-1,10-phenanthrolin-2-one], the IC50 is reported as 7.8 nM. `Nc1c(-c2ccc(F)c3[nH]ncc23)c2cc(OCC3(F)CC3)c3ncccc3c2[nH]c1=O` [Compound C38, 3-Amino-6-[(1-fluorocyclopropyl)methoxy]-4-(7-fluoro-1H-indazol-4-yl)-1H-1,7-phenanthrolin-2-one] showed an IC50 of 5.7 nM. `Nc1c(-c2ccc(Cl)c3[nH]ncc23)c2cc(OCCC(F)F)c(Cl)cc2[nH]c1=O` [Compound A9, 3-Amino-7-chloro-4-(7-chloro-1H-indazol-4-yl)-6-(3,3-difluoropropoxy)-1H-quinolin-2-one] showed an IC50 of 3.9 nM. `CC(C)(O)COc1cc2c(-c3ccc(F)c4[nH]ncc34)c(N)c(=O)[nH]c2c2cccnc12` [Compound C24, 3-Amino-4-(7-fluoro-1H-indazol-4-yl)-6-(2-hydroxy-2-methylpropoxy)-1H-1,7-phenanthrolin-2-one] showed an IC50 of 6.5 nM. With `Nc1c(-c2c(F)ccc3[nH]ncc23)c2cc(C3CC3)c3ncccc3c2[nH]c1=O` (atropisomer, axis not shown) [Compound C158, (S)-3-amino-6-cyclopropyl-4-(5-fluoro-1H-indazol-4-yl)-1H-1,7-phenanthrolin-2-one] the IC50 was 1.9 nM. `COc1cc2c(-c3ccc(Cl)c4[nH]ncc34)c(N)c(=O)[nH]c2c2cccnc12` [Compound C74, 3-Amino-4-(7-chloro-1H-indazol-4-yl)-6-methoxy-1H-1,7-phenanthrolin-2-one] showed an IC50 of 0.83 nM. In the case of `Cc1cc2c(-c3ccc(F)c4[nH]ncc34)c(N)c(=O)[nH]c2c2sccc12` [Compound L2, 7-Amino-6-(7-fluoro-1H-indazol-4-yl)-4-methyl-9H-thieno[3,2-h]quinolin-8-one], the IC50 is reported as 1.8 nM. `Nc1c(-c2ccc(F)c3[nH]ncc23)c2cc(OCC(F)(F)F)c3ncccc3c2[nH]c1=O` [Compound C15, 3-Amino-4-(7-fluoro-1H-indazol-4-yl)-6-(2,2,2-trifluoroethoxy)-1H-1,7-phenanthrolin-2-one] showed an IC50 of 2.6 nM. Work on `CC1(C)CC2(CC(c3cc4c(-c5ccc(F)c6[nH]ncc56)c(N)c(=O)[nH]c4c4cccnc34)C2)C1` [Compound C174, 3-Amino-6-(2,2-dimethylspiro[3,3]heptan-6-yl)-4-(7-fluoro-1H-indazol-4-yl)-1H-1,7-one] yielded an IC50 of 140 nM. `CN1CCN(c2cc3c(-c4ccc(F)c5[nH]ncc45)c(N)c(=O)[nH]c3c3nccnc23)CC1` [Compound G7, 8-Amino-7-(7-fluoro-1H-indazol-4-yl)-5-(4-methylpiperazin-1-yl)-10H-pyrido[2,3-f]quinoxalin-9-one] was tested, and the IC50 was 2.5 nM. Work on `Cc1cc2c(-c3ccc(F)c4[nH]ncc34)c(N)c(=O)[nH]c2c2cc(F)cnc12` [Compound F3, 3-Amino-9-fluoro-4-(7-fluoro-1H-indazol-4-yl)-6-methyl-1H-1,7-phenanthrolin-2-one] yielded an IC50 of 4 nM. `C=Cc1cc2c(-c3ccc(F)c4[nH]ncc34)c(N)c(=O)[nH]c2c2cccnc12` [Compound C89, 3-Amino-6-ethenyl-4-(7-fluoro-1H-indazol-4-yl)-1H-1,7-phenanthrolin-2-one] showed an IC50 of 3.9 nM.
